Measured values reported in patent US6838090B2, “Water-insoluble drug delivery system” (priority 1998, dated 2005).

What was measured:
[1] = system: p185; experiment: p185 expression in xenografts by western blot analysis; assay type: in vivo, SCID mice bearing human breast cancer xenografts; conditions: 40 mg/kg i.v. single dose
[2] = system: HSP90; conditions: 40 mg/kg i.v. single dose; 48-hours and 72-hours after administration
[3] = system: HSP70; experiment: HSP70 level in tumor tissue by western blot analysis; assay type: in vivo, SCID mice bearing human breast cancer xenografts; conditions: 40 mg/kg i.v. single dose

Row | Structure (SMILES) | concentration in tumor tissue (mouse, in vivo, iv, 40 mg/kg) | time remaining detectable in tumor tissue after administration (mouse, in vivo, iv, 40 mg/kg) | increase of p185 expression in xenografts over untreated mice ([1]; 2-hours after administration) | p185 expression in xenografts below control levels ([1]; 7-hours, 24-hours and 48-hours after administration) | HSP90 concentration in tumor tissue of treated vs untreated mice [2] | concentration in normal tissues (single intravenous dose of 40 mg/kg, SCID mice, 7-hours post-administration, HPLC) | HSP70 concentration in tumor tissue of treated vs untreated mice ([3]; 4-hours and 7-hours after administration) | HSP70 concentration in tumor tissue of treated vs untreated mice ([3]; 48-hours and 72-hours after administration)
1 | CO[C@H]1C=C/C=C(\C)C(=O)NC2=CC(=O)C(N)=C(C[C@@H](C)C[C@H](OC)[C@H](O)[C@@H](C)/C=C(\C)[C@@H]1OC(N)=O)C2=O (stereo in doubt) [Example 17-AG] | 0.5 to 1 µg/g | more than 48 hours |  |  |  |  |  | 
2 | C=CCNC1=C2C[C@@H](C)C[C@H](OC)[C@H](O)[C@@H](C)/C=C(\C)[C@H](OC(N)=O)[C@@H](OC)/C=C\C=C(/C)C(=O)NC(=CC1=O)C2=O [Example 17-AAG, 17-allylaminogeldanamycin] |  |  | 2 fold | 30% | elevated | below detection levels | lower | elevated
